Test results published in US20050239656A1, “Pyridine compounds or salts thereof and herbicides containing the same” (priority 2002, published 2005).

system: velvetleaf; assay: Test Example 2: soil surface treatment, upland pot test; format: in vivo, Abutilon theophrasti MEDIC.; conditions: active ingredient 250 g/ha, observed 20th to 28th day
Procedure, shortened: (§1)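 Pre-emergence: the soil surface was sprayed 1 day after sowing with wettable powder or emulsifiable concentrate diluted in water at 1,500 L/ha, at a predetermined active ingredient amount. Growth control was scored visually 20–28 days after treatment, 0 (untreated) to 100 (complete kill).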

Row | SMILES | Growth controlling degree (%) Velvetleaf
1 | CCCOC(=O)N(C)C(c1cnccc1C(F)(F)F)C(C)C (stereo not drawn) [I-203] | 30%
2 | CC(=O)N(C)C(c1cnccc1C(F)(F)F)C(C)C (stereo not drawn) [I-208] | 50%
3 | CC(C)C(c1cnccc1C(F)(F)F)N(C)C(=O)C(F)=Cc1ccccc1 (stereo not drawn) [Compound I-207] | 50%
4 | CC(C)C(c1cnccc1C(F)(F)F)N(C)C(=O)CCBr (stereo not drawn) [I-201] | 40%
5 | CC(C)C(c1cnccc1C(F)(F)F)N(C)C(=O)C(F)(F)F (stereo not drawn) [Compound I-209] | 60%
6 | CC(C)C(c1cnccc1C(F)(F)F)N(C)C(=O)Cc1ccc(Br)cc1F (racemic) [Compound I-137] | 50%

system: barnyardgrass; assay: as above; format: in vivo, Echinochloa crus-galli L.; conditions: active ingredient 250 g/ha, observed 20th to 28th day
Procedure, shortened: as §1

Row | SMILES | Growth controlling degree (%) Barnyardgrass
7 | CCCOC(=O)N(C)C(c1cnccc1C(F)(F)F)C(C)C (stereo not drawn) [I-203] | 100%
8 | CC(=O)N(C)C(c1cnccc1C(F)(F)F)C(C)C (stereo not drawn) [I-208] | 100%
9 | CC(C)C(c1cnccc1C(F)(F)F)N(C)C(=O)C(F)=Cc1ccccc1 (stereo not drawn) [Compound I-207] | 100%
10 | CC(C)C(c1cnccc1C(F)(F)F)N(C)C(=O)CCBr (stereo not drawn) [I-201] | 100%
11 | CC(C)C(c1cnccc1C(F)(F)F)N(C)C(=O)C(F)(F)F (stereo not drawn) [Compound I-209] | 100%
12 | CC(C)C(c1cnccc1C(F)(F)F)N(C)C(=O)Cc1ccc(Br)cc1F (racemic) [Compound I-137] | 98%

system: rice (var. Nihonbare); assay: Test Example 3: paddy pot test, transplanted rice; format: in vivo, Oryza sativa L.; conditions: active ingredient 250 g/ha, applied 4th day after transplantation, visually observed 21st day after application, 0 = non-treated, 100 = complete kill
Procedure, shortened: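 Visual crop-injury rating (0 = as untreated, 100 = complete kill, %) taken 21 days post-application. Treatment: formulated compound, water-diluted, pipetted into 3–4 cm flood water at a preset active-ingredient dose, 4 days after transplanting 2-leaf Nihonbare rice 3 cm deep in puddled paddy soil.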

Row | SMILES | Growth controlling degree (%) Rice
13 | CCCOC(=O)N(C)C(c1cnccc1C(F)(F)F)C(C)C (stereo not drawn) [I-203] | 10%
14 | CC(=O)N(C)C(c1cnccc1C(F)(F)F)C(C)C (stereo not drawn) [I-208] | 70%
15 | CC(C)C(c1cnccc1C(F)(F)F)N(C)C(=O)C(F)=Cc1ccccc1 (stereo not drawn) [Compound I-207] | 10%
16 | CC(C)C(c1cnccc1C(F)(F)F)N(C)C(=O)CCBr (stereo not drawn) [I-201] | 10%
17 | CC(C)C(c1cnccc1C(F)(F)F)N(C)C(=O)C(F)(F)F (stereo not drawn) [Compound I-209] | 35%
18 | CC(C)C(c1cnccc1C(F)(F)F)N(C)C(=O)Cc1ccc(Br)cc1F (racemic) [Compound I-137] | 0%

system: japanese bulrush; assay: Test Example 3: paddy pot test, application under submerged conditions; format: in vivo, Scirpus juncoides; conditions: active ingredient 250 g/ha; submerged application at 0.5 leaf stage; visually observed 14 days after application; 0 = non-treated, 100 = complete kill
Procedure, shortened: (§2)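 Paddy soil pots; seeds sown, lightly covered; flooded 0.5–1 cm in greenhouse; wapato tubers planted day 1–2; flood raised to 3–4 cm. Submerged pipette application at 0.5 leaf / primary leaf stage. Visual score day 14, 0–100%.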

Row | SMILES | Growth controlling degree (%) Japanese bulrush
19 | CCCOC(=O)N(C)C(c1cnccc1C(F)(F)F)C(C)C (stereo not drawn) [I-203] | 95%
20 | CC(=O)N(C)C(c1cnccc1C(F)(F)F)C(C)C (stereo not drawn) [I-208] | 98%
21 | CC(C)C(c1cnccc1C(F)(F)F)N(C)C(=O)C(F)=Cc1ccccc1 (stereo not drawn) [Compound I-207] | 100%
22 | CC(C)C(c1cnccc1C(F)(F)F)N(C)C(=O)CCBr (stereo not drawn) [I-201] | 98%
23 | CC(C)C(c1cnccc1C(F)(F)F)N(C)C(=O)C(F)(F)F (stereo not drawn) [Compound I-209] | 100%
24 | CC(C)C(c1cnccc1C(F)(F)F)N(C)C(=O)Cc1ccc(Br)cc1F (racemic) [Compound I-137] | 98%

system: redroot pigweed; assay: Test Example 2: soil surface treatment, upland pot test; format: in vivo, Amaranthus retroflexus L.; conditions: active ingredient 250 g/ha, observed 20th to 28th day
Procedure, shortened: as §1

Row | SMILES | Growth controlling degree (%) Redroot pigweed
25 | CCCOC(=O)N(C)C(c1cnccc1C(F)(F)F)C(C)C (stereo not drawn) [I-203] | 80%
26 | CC(=O)N(C)C(c1cnccc1C(F)(F)F)C(C)C (stereo not drawn) [I-208] | 90%
27 | CC(C)C(c1cnccc1C(F)(F)F)N(C)C(=O)C(F)=Cc1ccccc1 (stereo not drawn) [Compound I-207] | 60%
28 | CC(C)C(c1cnccc1C(F)(F)F)N(C)C(=O)CCBr (stereo not drawn) [I-201] | 70%
29 | CC(C)C(c1cnccc1C(F)(F)F)N(C)C(=O)C(F)(F)F (stereo not drawn) [Compound I-209] | 60%
30 | CC(C)C(c1cnccc1C(F)(F)F)N(C)C(=O)Cc1ccc(Br)cc1F (racemic) [Compound I-137] | 50%

system: wheat; assay: as above; format: in vivo, Triticum spp.; conditions: active ingredient 250 g/ha, observed 20th to 28th day
Excerpt: Upland field soil was put into a 1/170,000 ha pot, and seed of various plants (barnyardgrass, crabgrass, green foxtail, redroot pigweed, prickly sida, velvetleaf, rice, wheat, corn, soybean) were sown. On the 1st day after the sowing, a wettable powder or emulsifiable concentrate having the compound of the present invention formulated in accordance with a usual formulation method, was weighed so that the active ingredient would be a predetermined amount, and diluted with water in an amount of 1,500 L/ha. The herbicide thus adjusted was applied by a small size sprayer for soil surface treatment. On the 20th to 28th days after the application of the herbicide, the growth of the respective plants was visually observed, and the herbicidal effects were evaluated by the growth controlling degrees (%) ranging from 0 (equivalent to the non-treated plot) to 100 (complete kill), whereby the results shown in Table 4, were obtained.

Row | SMILES | Growth controlling degree (%) wheat
31 | CCCOC(=O)N(C)C(c1cnccc1C(F)(F)F)C(C)C (stereo not drawn) [I-203] | 30%
32 | CC(=O)N(C)C(c1cnccc1C(F)(F)F)C(C)C (stereo not drawn) [I-208] | 80%
33 | CC(C)C(c1cnccc1C(F)(F)F)N(C)C(=O)C(F)=Cc1ccccc1 (stereo not drawn) [Compound I-207] | 20%
34 | CC(C)C(c1cnccc1C(F)(F)F)N(C)C(=O)CCBr (stereo not drawn) [I-201] | 60%
35 | CC(C)C(c1cnccc1C(F)(F)F)N(C)C(=O)C(F)(F)F (stereo not drawn) [Compound I-209] | 70%
36 | CC(C)C(c1cnccc1C(F)(F)F)N(C)C(=O)Cc1ccc(Br)cc1F (racemic) [Compound I-137] | 30%

system: rice; assay: as above; format: in vivo, Oryza sativa L.; conditions: active ingredient 250 g/ha, observed 20th to 28th day
Procedure, shortened: as §1

Row | SMILES | Growth controlling degree (%) Rice
37 | CCCOC(=O)N(C)C(c1cnccc1C(F)(F)F)C(C)C (stereo not drawn) [I-203] | 60%
38 | CC(=O)N(C)C(c1cnccc1C(F)(F)F)C(C)C (stereo not drawn) [I-208] | 100%
39 | CC(C)C(c1cnccc1C(F)(F)F)N(C)C(=O)C(F)=Cc1ccccc1 (stereo not drawn) [Compound I-207] | 40%
40 | CC(C)C(c1cnccc1C(F)(F)F)N(C)C(=O)CCBr (stereo not drawn) [I-201] | 70%
41 | CC(C)C(c1cnccc1C(F)(F)F)N(C)C(=O)C(F)(F)F (stereo not drawn) [Compound I-209] | 70%
42 | CC(C)C(c1cnccc1C(F)(F)F)N(C)C(=O)Cc1ccc(Br)cc1F (racemic) [Compound I-137] | 40%

system: prickly sida; assay: as above; format: in vivo, Sida spinosa L.; conditions: active ingredient 250 g/ha, observed 20th to 28th day
Procedure, shortened: as §1

Row | SMILES | Growth controlling degree (%) Prickly sida
43 | CCCOC(=O)N(C)C(c1cnccc1C(F)(F)F)C(C)C (stereo not drawn) [I-203] | 60%
44 | CC(=O)N(C)C(c1cnccc1C(F)(F)F)C(C)C (stereo not drawn) [I-208] | 80%
45 | CC(C)C(c1cnccc1C(F)(F)F)N(C)C(=O)C(F)=Cc1ccccc1 (stereo not drawn) [Compound I-207] | 80%
46 | CC(C)C(c1cnccc1C(F)(F)F)N(C)C(=O)CCBr (stereo not drawn) [I-201] | 60%
47 | CC(C)C(c1cnccc1C(F)(F)F)N(C)C(=O)C(F)(F)F (stereo not drawn) [Compound I-209] | 70%
48 | CC(C)C(c1cnccc1C(F)(F)F)N(C)C(=O)Cc1ccc(Br)cc1F (racemic) [Compound I-137] | 50%

system: crabgrass; assay: as above; format: in vivo, Digitaria sanguinalis L.; conditions: active ingredient 250 g/ha, observed 20th to 28th day
Procedure, shortened: as §1

Row | SMILES | Growth controlling degree (%) Crabgrass
49 | CCCOC(=O)N(C)C(c1cnccc1C(F)(F)F)C(C)C (stereo not drawn) [I-203] | 100%
50 | CC(=O)N(C)C(c1cnccc1C(F)(F)F)C(C)C (stereo not drawn) [I-208] | 100%
51 | CC(C)C(c1cnccc1C(F)(F)F)N(C)C(=O)C(F)=Cc1ccccc1 (stereo not drawn) [Compound I-207] | 98%
52 | CC(C)C(c1cnccc1C(F)(F)F)N(C)C(=O)CCBr (stereo not drawn) [I-201] | 100%
53 | CC(C)C(c1cnccc1C(F)(F)F)N(C)C(=O)C(F)(F)F (stereo not drawn) [Compound I-209] | 98%
54 | CC(C)C(c1cnccc1C(F)(F)F)N(C)C(=O)Cc1ccc(Br)cc1F (racemic) [Compound I-137] | 98%

system: green foxtail; assay: as above; format: in vivo, Setaria viridis L.; conditions: active ingredient 250 g/ha, observed 20th to 28th day
Procedure, shortened: as §1

Row | SMILES | Growth controlling degree (%) Green foxtail
55 | CCCOC(=O)N(C)C(c1cnccc1C(F)(F)F)C(C)C (stereo not drawn) [I-203] | 98%
56 | CC(=O)N(C)C(c1cnccc1C(F)(F)F)C(C)C (stereo not drawn) [I-208] | 100%
57 | CC(C)C(c1cnccc1C(F)(F)F)N(C)C(=O)C(F)=Cc1ccccc1 (stereo not drawn) [Compound I-207] | 100%
58 | CC(C)C(c1cnccc1C(F)(F)F)N(C)C(=O)CCBr (stereo not drawn) [I-201] | 100%
59 | CC(C)C(c1cnccc1C(F)(F)F)N(C)C(=O)C(F)(F)F (stereo not drawn) [Compound I-209] | 100%
60 | CC(C)C(c1cnccc1C(F)(F)F)N(C)C(=O)Cc1ccc(Br)cc1F (racemic) [Compound I-137] | 100%

system: corn; assay: as above; format: in vivo, Zea mays L.; conditions: active ingredient 250 g/ha, observed 20th to 28th day
Procedure, shortened: as §1

Row | SMILES | Growth controlling degree (%) Corn
61 | CCCOC(=O)N(C)C(c1cnccc1C(F)(F)F)C(C)C (stereo not drawn) [I-203] | 40%
62 | CC(=O)N(C)C(c1cnccc1C(F)(F)F)C(C)C (stereo not drawn) [I-208] | 70%
63 | CC(C)C(c1cnccc1C(F)(F)F)N(C)C(=O)C(F)=Cc1ccccc1 (stereo not drawn) [Compound I-207] | 30%
64 | CC(C)C(c1cnccc1C(F)(F)F)N(C)C(=O)CCBr (stereo not drawn) [I-201] | 40%
65 | CC(C)C(c1cnccc1C(F)(F)F)N(C)C(=O)C(F)(F)F (stereo not drawn) [Compound I-209] | 50%
66 | CC(C)C(c1cnccc1C(F)(F)F)N(C)C(=O)Cc1ccc(Br)cc1F (racemic) [Compound I-137] | 10%

system: barnyardgrass; assay: Test Example 3: paddy pot test, application under submerged conditions; format: in vivo, Echinochloa crus-galli L.; conditions: active ingredient 250 g/ha; submerged application at 0.5 leaf stage; visually observed 14 days after application; 0 = non-treated, 100 = complete kill
Procedure, shortened: as §2

Row | SMILES | Growth controlling degree (%) Barnyardgrass
67 | CCCOC(=O)N(C)C(c1cnccc1C(F)(F)F)C(C)C (stereo not drawn) [I-203] | 100%
68 | CC(=O)N(C)C(c1cnccc1C(F)(F)F)C(C)C (stereo not drawn) [I-208] | 98%
69 | CC(C)C(c1cnccc1C(F)(F)F)N(C)C(=O)C(F)=Cc1ccccc1 (stereo not drawn) [Compound I-207] | 98%
70 | CC(C)C(c1cnccc1C(F)(F)F)N(C)C(=O)CCBr (stereo not drawn) [I-201] | 98%
71 | CC(C)C(c1cnccc1C(F)(F)F)N(C)C(=O)C(F)(F)F (stereo not drawn) [Compound I-209] | 98%
72 | CC(C)C(c1cnccc1C(F)(F)F)N(C)C(=O)Cc1ccc(Br)cc1F (racemic) [Compound I-137] | 100%

system: soybean; assay: Test Example 2: soil surface treatment, upland pot test; format: in vivo, Glycine max Merr.; conditions: active ingredient 250 g/ha, observed 20th to 28th day
Procedure, shortened: as §1

Row | SMILES | Growth controlling degree (%) Soyabean
73 | CCCOC(=O)N(C)C(c1cnccc1C(F)(F)F)C(C)C (stereo not drawn) [I-203] | 30%
74 | CC(=O)N(C)C(c1cnccc1C(F)(F)F)C(C)C (stereo not drawn) [I-208] | 60%
75 | CC(C)C(c1cnccc1C(F)(F)F)N(C)C(=O)C(F)=Cc1ccccc1 (stereo not drawn) [Compound I-207] | 30%
76 | CC(C)C(c1cnccc1C(F)(F)F)N(C)C(=O)CCBr (stereo not drawn) [I-201] | 40%
77 | CC(C)C(c1cnccc1C(F)(F)F)N(C)C(=O)C(F)(F)F (stereo not drawn) [Compound I-209] | 50%
78 | CC(C)C(c1cnccc1C(F)(F)F)N(C)C(=O)Cc1ccc(Br)cc1F (racemic) [Compound I-137] | 20%
